Assay results from ChEMBL document CHEMBL6096653, “α-GalCer sp2-iminoglycolipid analogs as CD1d-dependent iNKT modulators: Evaluation of their immunotherapeutic potential in murine models of asthma and autoimmune hepatitis” (Eur J Med Chem, 2025).
Activity calls are given as the source filed them. The rule behind the calls is not given here.

What was measured:
[1] = tested on: iNKT hybridoma DN3A4-1.2 cell; assay: Immunostimulatory activity in mouse iNKT hybridoma DN3A4-1.2 cell assessed as induction of IL-2 level at 10 to 25 uM incubated for 48 hrs by ELISA analysis; assay type: functional, cell-based; settings: dose 10-25 µM
Splenocyte [2] = assay: Immunostimulatory activity in BALB/c mouse Splenocyte assessed as induction of IFNgamma level at 25 uM incubated for 48 hrs by ELISA analysis; assay type: functional, cell-based
Splenocyte [3] = assay: Immunostimulatory activity in BALB/c mouse Splenocyte assessed as induction of IL-4 level at 25 uM incubated for 48 hrs by ELISA analysis; assay type: functional, cell-based
[4] = tested on: iNKT hybridoma DN3A4-1.2 cell; assay: Immunostimulatory activity in mouse iNKT hybridoma DN3A4-1.2 cell assessed as induction of IL-2 secretion at 10 to 25 uM incubated for 48 hrs in presence of alpha-GalCer by ELISA analysis; assay type: functional, cell-based; settings: dose 10-25 µM
Splenocyte [5] = assay: Immunostimulatory activity in Cd1d knockout BALB/c mouse Splenocyte assessed as effect on of IL-4 level at 10 to 25 uM incubated for 48 hrs by ELISA analysis; assay type: functional, cell-based; settings: dose 10-25 µM
Splenocyte [6] = assay: Immunostimulatory activity in BALB/c mouse Splenocyte assessed as induction of IL-4 level at 10 to 25 uM incubated for 48 hrs by ELISA analysis; assay type: functional, cell-based; settings: dose 10-25 µM
Splenocyte [7] = assay: Immunostimulatory activity in Cd1d knockout BALB/c mouse Splenocyte assessed as effect on of IFNgamma level at 10 to 25 uM incubated for 48 hrs by ELISA analysis; assay type: functional, cell-based; settings: dose 10-25 µM
Mus musculus [8] = assay: Immunostimulatory activity in ip dosed Th1-biased (OT-1) C57BL/6 mouse model transplanted with mouse Splenocyte assessed as increase in OVA-specific CD8+ T cells proliferation pretreated with compound and ovalbumin for 2 hrs and measured after 3 days by flow cytometry analysis; assay type: functional, organism-based; settings: dose 400.0 µg
Mus musculus [9] = assay: Anti-asthmatic activity in alpha-Galcer-induced female BALB/c mouse model assessed as reduction in IL-6 mRNA level in lung at 20 microg/g ip measured after 24 hrs by RT-PCR analysis; assay type: functional, organism-based; settings: dose 20.0 µg/g
Mus musculus [10] = assay: Anti-asthmatic activity in alpha-Galcer-induced female BALB/c mouse model assessed as reduction in Gob5 mRNA level in lung at 20 microg/g ip measured after 24 hrs by RT-PCR analysis; assay type: functional, organism-based; settings: dose 20.0 µg/g
Mus musculus [11] = assay: Anti-asthmatic activity in alpha-Galcer-induced female BALB/c mouse model assessed as reduction in TNF-alpha mRNA level in lung at 20 microg/g ip measured after 24 hrs by RT-PCR analysis; assay type: functional, organism-based; settings: dose 20.0 µg/g
[12] = Toxicity in C57BL/6J mouse assessed as decrease in AST level in serum at 20 microg/g, ip measured after 18 hrs; assay type: organism-based; settings: in vivo, dose 20 µg/g
Mus musculus [13] = assay: Anti-asthmatic activity in alpha-Galcer-induced female BALB/c mouse model assessed as reduction in Muc5ac mRNA level in lung at 20 microg/g ip measured after 24 hrs by RT-PCR analysis; assay type: functional, organism-based; settings: dose 20.0 µg/g
[14] = Toxicity in C57BL/6J mouse assessed as liver damage at 20 microg/g, ip measured after 18 hrs by H and E staining based analysis; assay type: organism-based; settings: in vivo, dose 20 µg/g
Mus musculus [15] = assay: Anti-asthmatic activity in alpha-Galcer-induced female BALB/c mouse model assessed as inhibition of airway hyperreactivity at 20 microg/g ip measured after 24 hrs; assay type: functional, organism-based; settings: dose 20.0 µg/g
Mus musculus [16] = assay: Anti-inflammatory activity in ConA-induced autoimmune hepatitis C57BL/6 mouse model assessed as reduction in IL-6 level in serum at 20 microg/g, ip pretreated with ConA for 18 hrs followed by compound addition and measured after 18 hrs; assay type: functional, organism-based; settings: dose 20.0 µg/g
Mus musculus [17] = assay: Anti-inflammatory activity in ConA-induced autoimmune hepatitis C57BL/6 mouse model assessed as reduction in TNF-alpha level in serum at 20 microg/g, ip pretreated with ConA for 18 hrs followed by compound addition and measured after 18 hrs; assay type: functional, organism-based; settings: dose 20.0 µg/g
Mus musculus [18] = assay: Immunostimulatory activity in ip dosed Th1-biased (OT-1) C57BL/6 mouse model transplanted with mouse Splenocyte assessed as increase in OVA-specific CD8+ T cells proliferation pretreated with compound and ovalbumin for 2 hrs and measured after 2 days by flow cytometry analysis; assay type: functional, organism-based; settings: dose 400.0 µg, time 50.0 hrs
Mus musculus [19] = assay: Immunostimulatory activity in Th1-biased (OT-1) C57BL/6 mouse model transplanted with mouse Splenocyte assessed as increase in OVA-specific CD8+ T cells proliferation at 1 to 400 ug, ip pretreated with compound and ovalbumin for 2 hrs and measured after 3 days by flow cytometry analysis; assay type: functional, organism-based; settings: dose 1-400 µg, time 74.0 hrs
Splenocyte [20] = assay: Immunostimulatory activity in BALB/c mouse Splenocyte assessed as induction of IFNgamma level at 10 to 25 uM incubated for 48 hrs by ELISA analysis; assay type: functional, cell-based; settings: dose 10-25 µM
Mus musculus [21] = assay: Immunostimulatory activity in Th1-biased (OT-1) C57BL/6 mouse model transplanted with mouse Splenocyte assessed as increase in OVA-specific CD8+ T cells proliferation at 1 to 400 ug, ip pretreated with compound and ovalbumin for 2 hrs and measured after 2 days by flow cytometry analysis; assay type: functional, organism-based; settings: dose 1-400 µg, time 50.0 hrs
[22] = Toxicity in C57BL/6J mouse assessed as decrease in ALT level in serum at 20 microg/g, ip measured after 18 hrs; assay type: organism-based; settings: in vivo, dose 20 µg/g
Splenocyte [23] = assay: Cytotoxicity against mouse Splenocyte assessed as cell viability at 25 uM by AlamarBlue assay; assay type: toxicity, cell-based

SMILES	Activity [1]	Activity (Splenocyte [2])	Activity (Splenocyte [3])	Activity [4]	Activity (Splenocyte [5])	Activity (Splenocyte [6])	Activity (Splenocyte [7])	further results
CCCCCCCCCCCCCCCCCCCCCCCCCC(=O)N[C@@H](CO[C@@H]1[C@H](O)[C@@H](O)[C@@H](O)[C@H]2COC(=O)N21)[C@H](O)[C@H](O)CCCCCCCCCCCCCC	inactive	inactive	inactive	Active				
CCCCCCCCCCCCCCCCCCCCCCCCCC(=O)N[C@@H](CO[C@@H]1[C@H](O)[C@@H](O)[C@H](O)[C@H]2COC(=O)N21)[C@H](O)[C@H](O)CCCCCCCCCCCCCC	inactive	inactive	inactive	Active				
CCCCCCCCCCCCCC[C@@H](O)[C@@H](O)[C@H](CO[C@@H]1[C@H](O)[C@@H](O)[C@@H](O)[C@H]2COC(=O)N21)n1cc(CCCC)nn1		inactive						
CCCCCCCCCCCCCC[C@@H](O)[C@@H](O)[C@H](CO[C@@H]1[C@H](O)[C@@H](O)[C@@H](O)[C@H]2COC(=O)N21)n1cc(CCCCCCCCCCCC)nn1		inactive	Active		inactive	Active	inactive	
CCCCCCCCCCCCCC[C@@H](O)[C@@H](O)[C@H](CO[C@@H]1[C@H](O)[C@@H](O)[C@@H](O)[C@H]2COC(=O)N21)n1cc(CCCCCCCC)nn1	Active	Active	Active	Active	inactive	Active	inactive	Activity (Mus musculus [8]): Dose-dependent-effect; Activity (Mus musculus [9]): Active; Activity (Mus musculus [10]): Active; Activity (Mus musculus [11]): Active; Activity [12]: Non-toxic; Activity (Mus musculus [13]): Active; Activity [14]: Non-toxic; Activity (Mus musculus [15]): Active; Activity (Mus musculus [16]): Active; Activity (Mus musculus [17]): Active; Activity (Mus musculus [18]): Dose-dependent-effect; Activity (Mus musculus [19]): Active; Activity (Splenocyte [20]): Active; Activity (Mus musculus [21]): Active; Activity [22]: Non-toxic
CCCCCCCCCCCCCC[C@@H](O)[C@@H](O)[C@H](CO[C@@H]1[C@H](O)[C@@H](O)[C@@H](O)[C@H]2COC(=O)N21)n1cc(CCCCCC)nn1		inactive	Active		inactive	Active	inactive	Activity (Splenocyte [23]): Toxic
